US20180237713A1, “Ionic Liquid, Lubricant, and Magnetic Recording Medium” (priority 2015, published 2018)

What was measured:
[1] = in acetonitrile; cited from earlier work
[2] = Thermal stability measurement (TG/DTA weight reduction temperature); conditions: TG/DTA, air 200 mL/min, 10° C./min, 30° C. to 600° C.
[3] = Solubility test of ionic liquid in fluorine-based solvent VERTREL XF; conditions: for Dissolved or not in fluorine-based solvent: VERTREL XF; for Solubility to fluorine-based solvent: VERTREL XF [CF3(CHF)2CF2CF3], 25° C., ultrasonic 5 minutes, left 1 day, visual
Method: A solubility test was performed on the ionic liquid synthesized each of Examples and each of Comparative Examples using VERTREL XF [CF3(CHF)2CF2CF3] available from Du Pont-Mitsui Fluorochemicals Company, Ltd. as a fluorine-based solvent.
The ionic liquid was added to the predetermined mass of VERTREL XF.
Specifically, 0.5 parts by mass or 0.1 parts by mass of each ionic liquid was added to 100 parts by mass of VERTREL XF (25° C.).
Note that, a case where the mixture was visually observed to be transparent, the ionic liquid was judged as being dissolved. A case where the mixture was not transparent or insoluble matter was observed, the ionic liquid was judged as not being dissolved (insoluble).
The ionic liquid was dissolved when 0.5 parts by mass of the ionic liquid was added.
The ionic liquid was not dissolved when 0.5 parts by mass of the ionic liquid was added, but the ionic liquid was dissolved when 0.1 parts by mass of the ionic liquid was added.
The ionic liquid was not dissolved both when 0.5 parts by mass of the ionic liquid was added and when 0.1 parts by mass of the ionic liquid was added.

Solubility to fluorine-based solvent ([3]; listed as Example 1A) [% by mass]	Molecule	pKa of acid that is a source of the conjugate base [1]	Weight reduction temperature 5% [2] [°C]	Weight reduction temperature 10% [2] [°C]	Weight reduction temperature 20% [2] [°C]	Dissolved or not in fluorine-based solvent [3]	Solubility to fluorine-based solvent [3]	Solubility to fluorine-based solvent ([3]; listed as Example 5A) [% by mass]	Solubility to fluorine-based solvent ([3]; listed as Example 4A) [% by mass]
	O=S(=O)(NS(=O)(=O)C(F)(F)C(F)(F)C(F)(F)C(F)(F)F)C(F)(F)C(F)(F)C(F)(F)C(F)(F)F [bis(nonafluorobutanesulfonyl)imide]	0.0							
	CCCCCCCCCCCCCCCCCCN1CCCC1.O=S(=O)(NS(=O)(=O)C(F)(F)C(F)(F)C(F)(F)C(F)(F)F)C(F)(F)C(F)(F)C(F)(F)C(F)(F)F [Ex. 5A, bis(nonafluorobutanesulfonyl)imide-N-octadecylpyrrolidinium]		312.6	334.4	355.5	could be dissolved	0.5% by mass or greater	≥ 0.5	
	O=S(=O)(C(S(=O)(=O)C(F)(F)F)S(=O)(=O)C(F)(F)F)C(F)(F)F [tris(trifluoromethanesulfonyl)methide]	−3.7							
	F[B-](F)(F)F.[H+] [tetrafluoroboric acid]	1.8							
	CCCCCCCCCCCCCCCCCCN1CCCN2CCCN=C12.O=S1(=O)NS(=O)(=O)C(F)(F)C(F)(F)C1(F)F [Comp. Ex. 4A, hexafluorocyclopropane-1,3-bis(sulfonyl)imide-7-octadecyl-1,5,7-triazabicyclo[4.4.0]-5-decenium, reference compound]		288.4	376.2	412.1	not dissolved	less than 0.1% by mass		
	O=S(=O)(O)C(F)(F)C(F)(F)C(F)(F)C(F)(F)C(F)(F)C(F)(F)C(F)(F)C(F)(F)F [heptadecafluorooctane sulfonic acid]	0.7							
	CCCCCCCCCCCCCCCCCCC1CCCCN2CCCN=C12.O=S1(=O)NS(=O)(=O)C(F)(F)C(F)(F)C1(F)F (stereo not shown) [Comp. Ex. 1A, hexafluorocyclopropane-1,3-bis(sulfonyl)imide-6-octadecyl-1,8-diazabicyclo[5.4.0]-7-undecenium, reference compound]		346.3	384.1	414.0		less than 0.1% by mass		
	CCCCCCCCCCCCCCCCCCN1CCCC1.O=S1(=O)NS(=O)(=O)C(F)(F)C(F)(F)C1(F)F [Comp. Ex. 6A, hexafluorocyclopropane-1,3-bis(sulfonyl)imide-N-octadecylpyrrolidinium, reference compound]		336.4	358.4	379.4		less than 0.1% by mass		
	CCCCCCCCCCCCCCCCCCn1cc[n+](CCCCCCCCC[n+]2ccn(CCCCCCCCCCCCCCCCCC)c2)c1.O=S(=O)([N-]S(=O)(=O)C(F)(F)C(F)(F)C(F)(F)C(F)(F)F)C(F)(F)C(F)(F)C(F)(F)C(F)(F)F.O=S(=O)([N-]S(=O)(=O)C(F)(F)C(F)(F)C(F)(F)C(F)(F)F)C(F)(F)C(F)(F)C(F)(F)C(F)(F)F [Comp. Ex. 10A, 1,9-bis[bis(nonafluorobutanesulfonyl)imide-1-octadecylimidazolium]nonane, reference compound]		355.1	381.0	400.9		less than 0.1% by mass		
	O=S1(=O)NS(=O)(=O)C(F)(F)C(F)(F)C1(F)F [hexafluorocyclopropane-1,3-bis(sulfonyl)imide]	−0.8							
	CCCCCCCCCCCCCCCCCC[N+]1(CCCC)CCCC1.O=S(=O)([N-]S(=O)(=O)C(F)(F)C(F)(F)C(F)(F)C(F)(F)F)C(F)(F)C(F)(F)C(F)(F)C(F)(F)F [Ex. 4A, bis(nonafluorobutanesulfonyl)imide-N-butyl-N-octadecylpyrrolidinium]		331.4	360.2	382.5	could be dissolved	0.5% by mass or greater		≥ 0.5
	CCCCCCCCCCCCCCCCCC[n+]1ccn(CCCC)c1.O=S(=O)([N-]S(=O)(=O)C(F)(F)C(F)(F)C(F)(F)C(F)(F)F)C(F)(F)C(F)(F)C(F)(F)C(F)(F)F [Comp. Ex. 8A, bis(nonafluorobutanesulfonyl)imide-1-butyl-3-n-octadecylimidazolium, reference compound]		347.2	367.0	387.8		less than 0.1% by mass		
≥ 0.5	bis(nonafluorobutanesulfonyl)imide-6-octadecyl-1,8-diazabicyclo[5.4.0]-7-undecene [Ex. 1A]		352.9	378.2	396.7		0.5% by mass or greater		
